Key:
human 15-LO = target: T1, human 15-LO (Homo sapiens, UniProt P16050); assay: 15-LO inhibition, human enzyme; assay type: biochemical; details: linoleic acid as substrate
T1 sequence (P16050 1-662): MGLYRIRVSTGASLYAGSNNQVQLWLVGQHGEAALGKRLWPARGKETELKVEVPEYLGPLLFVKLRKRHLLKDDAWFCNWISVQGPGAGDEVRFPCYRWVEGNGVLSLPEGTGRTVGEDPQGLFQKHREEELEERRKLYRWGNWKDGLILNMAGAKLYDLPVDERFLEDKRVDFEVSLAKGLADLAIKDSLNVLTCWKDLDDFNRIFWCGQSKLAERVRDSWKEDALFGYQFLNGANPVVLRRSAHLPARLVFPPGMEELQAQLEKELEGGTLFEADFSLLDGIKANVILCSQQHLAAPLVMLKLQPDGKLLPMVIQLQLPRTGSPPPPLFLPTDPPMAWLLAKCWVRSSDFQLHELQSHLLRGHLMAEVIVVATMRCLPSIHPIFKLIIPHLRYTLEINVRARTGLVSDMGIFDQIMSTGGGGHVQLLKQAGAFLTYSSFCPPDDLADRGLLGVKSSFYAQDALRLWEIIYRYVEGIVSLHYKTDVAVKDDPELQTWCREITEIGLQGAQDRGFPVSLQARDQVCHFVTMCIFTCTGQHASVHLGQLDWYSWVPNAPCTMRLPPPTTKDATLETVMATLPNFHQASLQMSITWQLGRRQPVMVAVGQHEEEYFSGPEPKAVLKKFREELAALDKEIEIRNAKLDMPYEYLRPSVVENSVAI
Procedure: (§1) The compounds described above are effective inhibitors of 15-LO when evaluated in standard assays routinely utilized to measure 15-LO activity. Specifically, representative compounds were evaluated by the methods described by Auerbach et al., Analytical Biochemistry, 1992;201:375-380. Two in vitro assays were utilized, one utilizing rabbit reticulocyte 15-LO, the other using human 15-LO. Both used linoleic acid as substrate, to enzymatically produce a peroxide oxidation product known as 13(S)-HPODE. N-Benzoyl leucomethylene blue was utilized as a colorimetric reagent for detection and quantification of the peroxide formation. Also, HPLC was utilized to quantify the oxidation following incubation at 4° C. for 10 minutes.
(§2) Data Column 1 gives the concentration of compound required to inhibit 50% of the activity of 15-LO (IC50) when measured by the HPLC method of Auerbach et al. using rabbit enzymes, and data Column 2 gives data from human 15-LO enzyme.

[1] = target: T2, rabbit reticulocyte 15-LO (Oryctolagus cuniculus, UniProt P12530); assay: 15-LO inhibition, rabbit reticulocyte enzyme (HPLC method of Auerbach et al.); assay type: biochemical; details: linoleic acid as substrate, incubation at 4° C. for 10 minutes
T2 construct: one utilizing rabbit reticulocyte 15-LO; from tissue; host or cells: rabbit reticulocytes
T2 sequence (P12530 1-663): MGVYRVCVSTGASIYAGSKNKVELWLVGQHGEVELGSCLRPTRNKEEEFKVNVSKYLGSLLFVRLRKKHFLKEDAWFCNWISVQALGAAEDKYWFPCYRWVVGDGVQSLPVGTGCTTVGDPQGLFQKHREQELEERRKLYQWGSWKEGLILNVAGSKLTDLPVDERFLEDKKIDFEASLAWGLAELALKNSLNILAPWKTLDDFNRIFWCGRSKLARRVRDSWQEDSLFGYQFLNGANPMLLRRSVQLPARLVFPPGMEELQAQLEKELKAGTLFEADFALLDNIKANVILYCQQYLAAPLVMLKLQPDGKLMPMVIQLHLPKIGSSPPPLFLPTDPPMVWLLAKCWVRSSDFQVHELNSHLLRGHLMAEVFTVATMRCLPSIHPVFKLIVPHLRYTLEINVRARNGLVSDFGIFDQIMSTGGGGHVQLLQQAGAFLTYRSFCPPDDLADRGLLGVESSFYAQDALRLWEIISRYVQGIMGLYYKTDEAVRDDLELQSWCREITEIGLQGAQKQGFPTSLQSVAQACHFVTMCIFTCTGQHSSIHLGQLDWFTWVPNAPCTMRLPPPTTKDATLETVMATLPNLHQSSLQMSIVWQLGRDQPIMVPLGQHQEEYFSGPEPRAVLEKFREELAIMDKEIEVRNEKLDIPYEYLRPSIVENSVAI
Procedure: as §1, §2

Structure (SMILES) | IC50 (human 15-LO) [nM] | IC50 [1] [nM] | melting point [°C]
COc1ccc(-c2cc3cc(F)c(F)cc3[nH]2)cc1NC(=S)NCCO [Example 37, 1-[5-(5,6-Difluoro-1H-indol-2-yl)-2-methoxy-phenyl]-3-(2-hydroxy-ethyl)-thiourea] | 33 | 45 | 191 to 193
COc1ccc(-c2cc3cc(F)c(F)cc3[nH]2)cc1NC(=S)NCCNC(=O)OC(C)(C)C [Example 38, (2-{3-[5-(5,6-Difluoro-1H-indol-2-yl)-2-methoxy-phenyl]-thioureido}-ethyl)-carbamic acid tert-butyl ester] | 25 | 19 | 110 to 113
COc1ccc(-c2cc3cc(F)c(F)cc3[nH]2)cc1NC(=S)Nc1ccc(F)c(F)c1 [Example 39, 1-[5-(5,6-Difluoro-1H-indol-2-yl)-2-methoxy-phenyl]-3-(3,4-difluoro-phenyl)-thiourea] | 36 | 17 | 183 to 186
COc1ccc(-c2cc3cc(F)c(F)cc3[nH]2)cc1NC(=S)Nc1cccnc1 [Example 41, 1-[5-(5,6-Difluoro-1H-indol-2-yl)-2-methoxy-phenyl]-3-pyridin-3-yl-thiourea] | 10 | 5 | 128 to 130
COc1ccc(-c2cc3cc(F)c(F)cc3[nH]2)cc1NCc1ccc(C#N)cc1 [Example 50, [5-(5,6-Difluoro-1H-indol-2-yl)-2-methoxy-phenyl]-(4-cyano-benzyl)-amine] | 116 | 74 | 158 to 159

Source: patent US6858739B2, “Indole and benzimidazole 15-lipoxygenase inhibitors” (Warner-Lambert Company, priority 2000, dated 2005)
